Results published in patent publication US20180037605A1, “SYNTHETIC PEPTIDES AND ENZYMATIC FORMATION OF INTRACELLULAR HYDROGELS” (BRANDEIS UNIVERSITY, priority 2015, published 2018).
≈ marks a conversion by molar mass, not a printed value. Like-named read-outs stand apart in the source and are kept apart here.

Assays:
[1] = test system: HeLa cells; conditions: 200 μM, 24 hours
[2] = test system: HeLa cells
Method: The HeLa cell line CCL-2™ was purchased from the American Type Culture Collection (ATCC, Manassas, Va., USA).
The following formula was used to calculate the intracellular concentration of the peptides.
Intracellular concentration=(c*300 uL)/(cell number*4*10^−9 cm^3)
where c=(fluorescence−15406.76945)/74174.36908. An average size for the common cells used in cell culture (HeLa) is 15-20 microns in diameter for a suspended cell (volume 4/3πr^3=4000 μm^3 or 4×10^−9 cm^3) (Moran et al., Cell 141:1262 (2010), which is hereby incorporated by reference in its entirety). Methanol was used to break the cell membrane and fully dissolve compounds 1-t, 2-t, and 3.
To quantify the intracellular concentration of the D-peptide derivatives, the procedure illustrated in FIG. 9A was used to determine the cellular uptake of 1-t, 1, and 2-t after treating HeLa cells with these molecules, respectively. […] The “uptake concentration (Cu)” of 1-t or 1 is the sum of 3 and 1-t (or 1) inside the cells.

[3] = test system: MES-SA cells; experiment: MTT cell viability, MES-SA; format: cell-based; conditions: third day (72 h)
Method: (§1) The cells were seeded in exponential growth phase in a 96 well plate at a concentration of 1×10^4 cell/well with 100 μL of culture medium. Cells were allowed to attach for 24 hours at 37° C., 5% CO2 and then the culture medium was removed with the help of vacuum pump. Culture medium containing the precursors in gradient concentrations was added to each well (0 μM as control). 10 μL of 5 mg/mL MTT ((3-(4,5-Dimethylthiazol-2-yl)-2,5-diphenyltetrazolium bromide) was added to each well after 24 hours, 48 hours, and 72 hours incubation. After 4 hours incubation of the plated cells in dark place, 100 μL 10% SDS with 0.01 M HCl was added to each well to dissolve the purple formazan and to stop the reduction reaction. 24 hours later, the absorbance of the solution at 595 nm was finally measured with a DTX 880 Multimode Detector.

[4] = test system: HS-5 cells; experiment: MTT cell viability, HS-5 stromal cells
Method: as §1

[5] = test system: co-cultured HS-5 and A2780cis cells; experiment: Cell viability of co-cultured HS-5 and A2780cis cells; format: cell-based; conditions: L-10 73 μg/mL, third day
Method: 5×10^3 of SKOV3 cells (or A2780cis) and 5×10^3 HS-5 cells per well were seeded together and co-cultured in DMEM medium. Based on the results in FIG. 22, the concentrations of L-10 and D-10 at 73 and 37 μg/mL, respectively, were chosen. […] The inhibitory activities of L-10 and D-10 towards the co-culture agree well with their cytotoxicity against A2780cis, SKOV3, and H-5 cells. […] For example, on the first day, the cell viabilities of co-cultured HS-5 and SKOV3 cells and co-cultured HS-5 and A2780cis cells treated by D-10 (37 μg/mL) were 79% and 80%, respectively. While on the third day, the cell viabilities dropped to 44% and 57%, respectively. […] Contrary to the case of D-10, the efficacies of L-10 were almost the same between day two and day three (FIG. 25A), which agreed with the lower in vivo stability of L-10 than that of D-10.

[6] = test system: HepG2 cells; experiment: MTT cell viability, HepG2; format: cell-based; conditions: third day (72 h)
Method: as §1

[7] = test system: SKOV3 cells
Method: SKOV3 cells were seeded in exponential growth phase in a 96 well plate at a concentration of 1×10^4 cell/well with 100 μL of McCoy's 5A medium modified supplemented with 10% fetal bovine serum (FBS), 100 U/mL penicillin and 100 μg/ml streptomycin. The cells were allowed to attach to the wells for 24 hours at 37° C., 5% CO2. The culture medium was removed and 100 μL culture medium containing compounds (immediately diluted from fresh prepared stock solution of 10 mM) at gradient concentrations (0 μM as the control) was placed into each well. McCoy's 5A medium modified was regarded as blank. After culturing at 37° C., 5% CO2 for 24 hours, 48 hours, and 72 hours, 10 μL of 5 mg/mL MTT (3-(4,5-Dimethylthiazol-2-yl)-2,5-diphenyltetrazolium bromide) was added to each well, and the plated cells were incubated in dark place for 4 hours. 100 μL 10% SDS with 0.01 M HCl was added to each well to stop the reduction reaction and to dissolve the purple formazan. After incubation of the cells at 37° C. for overnight, the OD at 595 nm of the solution was measured in a microplate reader.
as §1

[8] = test system: PC-12 cells; experiment: MTT cell viability, PC-12 neuronal cells; format: cell-based, rat
Method: as §1

[9] = test system: A2780 cells; experiment: MTT cell viability, A2780; format: cell-based; conditions: third day (72 h)
[10] = test system: SKOV3 cells; experiment: LC-MS of cell lysates and culture medium, SKOV3; format: cell-based
Method: After confirming that CES converts the precursor L-10 or D-10 into the hydrogelator L-12 or D-12, the stability of the precursors (L-10 or D-10) when incubated with the ovarian cancer cells was determined. After culturing the precursors with SKOV3 or A2780cis cells at 37° C. for 4 hours, the cell lysates and culture medium were collected for liquid chromatography-mass spectrometry (LC-MS) analysis and the intracellular concentrations of the precursors, the hydrogelators, and the relevant proteolyzed products were determined. After incubation with SKOV3 or A2780cis cells for 4 hours, more than 85% of the precursors (L-10 or D-10) turned into the corresponding hydrogelators (L-12 or D-12; see Table 1 below).

[11] = test system: A2780cis cells
[12] = test system: MES-SA/D×5 cells; experiment: MTT cell viability, MES-SA/D×5; format: cell-based; conditions: third day (72 h)
Method: as §1

[13] = Systemic toxicity after intravenous injection in mice; conditions: 5 to 20 mg/kg, after 7 days
[14] = in vitro; conditions: human
Method: as §1

[15] = test system: T98G cells; experiment: MTT cell viability, T98G; format: cell-based
Method: as §1

[16] = test system: A375 cells; experiment: MTT cell viability, A375; format: cell-based; conditions: third day (72 h)
Method: as §1

[17] = test system: HS-5 cells; conditions: 72 h
Method: as §1

[18] = test system: MCF-7 cells; experiment: MTT cell viability, MCF-7; format: cell-based; conditions: third day (72 h)
Method: as §1

[19] = test system: HCC1937 cells; experiment: MTT cell viability, HCC1937; format: cell-based; conditions: third day (72 h)
[20] = test system: HeLa cells; experiment: MTT cell viability, HeLa; format: cell-based; conditions: third day (72 h)
Method: D-7 and D-10 (FIG. 12A), the enantiomers of L-7 and L-10, were prepared as described in Example 3. HeLa and SKOV3 cells were used in an MTT assay for assessing cytotoxicity of the peptides against these cancer cell lines.

[21] = test system: Saos-2 cells; experiment: MTT cell viability, Saos-2; format: cell-based; conditions: third day (72 h)
Method: as §1

[22] = test system: U87MG cells; experiment: MTT cell viability, U87MG; format: cell-based
Method: as §1

[23] = test system: HS-5 cells; conditions: literature (Mendonca et al.); cited from earlier work
[24] = test system: PC-12 cells; conditions: literature (Mendonca et al.); cited from earlier work
[25] = test system: SKOV3 cells; conditions: read-out: IC50 of cisplatin; literature value (Oumzil et al.) used as comparison for SKOV3 inhibition; cited from earlier work
[26] = test system: esterase; experiment: Esterase-catalysed conversion of 1-t to 3 (analytical HPLC); format: biochemical, porcine
[27] = 1.0 wt %, pH 7.4
Method: Peptides 1-t/1 were dissolved into distilled water, and the pH of the solution was adjusted carefully by adding 1M NaOH, and this was monitored with pH paper. After the pH of the solution reached 7.4, extra distilled water was added to make the final concentration, followed by the addition of esterase to induce enzymatic gelation.
To elucidate the enzyme-catalyzed self-assembly to form supramolecular nanofibrils inside cells after cellular uptake illustrated in FIG. 2A, the enzymatic transformation of 1-t (or 1) to 3 and the subsequent self-assembly of 3 at the concentration of 1.0 wt % was first examined. To study the enzymatic hydrogelation process of 1-t, analytical HPLC was used to evaluate the rate of enzymatic transformation and transmission electron microscopy (TEM) to examine the self-assembly.

[28] = 200 μM in culture medium, 24 hours
[29] = SKOV3 cell lysates, 4 hours, 37° C., 20 μm D-10 or 50 μm L-10

SMILES: O=C(CCC(=O)NCCS(=O)(=O)O)NCCNC(=O)[C@@H](Cc1ccccc1)NC(=O)[C@@H](Cc1ccccc1)NC(=O)CCNc1ccc([N+](=O)[O-])c2nonc12 [2-t]
- stability inside cells [1]: remained intact inside cells
- Cu [2, 28]: 800 µM
- uptake concentration (Cu) / intracellular concentration [2, 28]: 0.8 mM
- intracellular concentration after first wash ([2]; 200 μM, 24 hour incubation): 0.6 mM
- intracellular concentration after washing five times with PBS buffer ([2]; 200 μM, 24 hour incubation): 0.08 mM
- decrease of intracellular concentration by each wash ([2]; 200 μM, 24 hour incubation, PBS wash): about 25%
- uptake concentration relative to incubation (extracellular) concentration ([2]; 200 μM, 24 hours): 4 fold

SMILES: O=C(CCC(=O)OCCNC(=O)[C@H](Cc1ccccc1)NC(=O)[C@H](Cc1ccccc1)NC(=O)Cc1ccc2ccccc2c1)NCCS(=O)(=O)O [L-10]
- IC50, MES-SA [3]: 40 µg/mL (≈ 54.7 µM)
- inhibition of HS-5 cells ([4]; 20 μM (D-10) and 50 μM (L-10)): hardly inhibited
- inhibition of co-cultured HS-5 and A2780cis cells [5]: about 57%
- IC50, HepG2 [6]: 97 µg/mL (≈ 133 µM)
- IC50, SKOV3 ([7]; 72 h): 46 µg/mL (≈ 62.9 µM)
- inhibition of SKOV3 cells by mixture with CP ([7]; 72 h, 37 μg/mL): ~87%
- inhibition of PC-12 cells ([8]; 20 μM (D-10) and 50 μM (L-10)): hardly inhibited
- IC50, PC-12 ([8]; third day (72 h)): above 73 μg/mL
- IC50, A2780 [9]: 49 µg/mL (≈ 67 µM)
- cumulative intracellular concentration of precursor and hydrogelator relative to incubation concentration ([10]; 4 hours incubation): about 10 fold
- Ratio of hydrogelator to precursor after 4 hours ([10]; SKOV3 cell lysates, 20 μm D-10 or 50 μm L-10): 6.95
- Hydrogelator (12) intracellular concentration [10, 29]: 431 μm
- Precursor (10) intracellular concentration [10, 29]: 62 μm
- IC50, A2780cis ([11]; third day (72 h)): 39 µg/mL (≈ 53.4 µM)
- IC50, MES-SA/D×5 [12]: 322 µg/mL (≈ 441 µM)
- effect on weight and organ index of mice [13]: hardly affected
- viability at 3 day, 73 μg/mL [14]: ~80%
- cell viability of T98G ([15]; 365 μg/mL of L-10): ~60%
- cytotoxicity toward T98G ([15]; at or below 146 μg/mL, 72 h): little cytotoxicity
- IC50, A375 [16]: 94 µg/mL (≈ 129 µM)
- IC50, HS-5 [17]: above 73 μg/mL
- IC50, MCF-7 [18]: 28 µg/mL (≈ 38.3 µM)
- IC50, HCC1937 [19]: 29 µg/mL (≈ 39.7 µM)
- IC50, HeLa [20]: 53 µg/mL (≈ 72.5 µM)
- IC50, Saos-2 [21]: 80 µg/mL (≈ 109 µM)
- cell viability of U87MG ([22]; 365 μg/mL of L-10): about 70%
- cytotoxicity toward U87MG ([22]; at or below 146 μg/mL, 72 h): little cytotoxicity

SMILES: N.N.[Cl][Pt][Cl] [cisplatin, reference compound]
- HS-5 cells killed / inhibited ([4]; 37 μg/mL, third day): ~100%
- inhibition of SKOV3 cells ([7]; 37 μg/mL, third day): 90%
- inhibition of SKOV3 cells ([7]; CP 6 μg/mL alone, 72 hours): 48%
- cell death of SKOV3 cells ([7]; CP 6 μg/mL alone, 72 hours (control compound experiment)): about 40%
- inhibition of HS-5 cells [23]: significantly inhibiting
- inhibition of A2780cis cells ([11]; 37 μg/mL, third day): about 98%
- inhibition of PC-12 cells [24]: significantly inhibiting
- IC50 [25]: 35 µM

SMILES: O=C(CCC(=O)OCCNC(=O)[C@@H](Cc1ccccc1)NC(=O)[C@@H](Cc1ccccc1)NC(=O)CCNc1ccc([N+](=O)[O-])c2nonc12)NCCS(=O)(=O)O [1-t]
- 1-t converted to 3 (HPLC) ([26]; 1-t 100 μM, esterase 1 U/mL, 24 hours): more than 50%
- metabolised at 24 h, 1 wt % ([26]; pig, esterase from porcine liver, pH 7.4, 1-t 1.0 wt %, esterase 1 U/ml, 24 hours, read-out: 1-t converted to 3 (HPLC)): ~11%
- metabolised at 1 min, 1 wt % ([26]; pig, esterase from porcine liver, 1-t 1.0 wt %, pH 7.4, esterase 1 U/ml, 1 min, read-out: 1-t converted to 3 (analytical HPLC)): 2.5%
- solubility [27]: significantly enhanced the solubility
- enhancement of cellular uptake compared with incubation concentration ([2]; 50 μM, 24 hours): about 3 fold
- uptake concentration (Cu) / intracellular concentration [2, 28]: 1.6 mM
- intracellular concentration after washing five times with PBS buffer ([2]; 200 μM, 24 hour incubation): 1.4 mM
- uptake concentration relative to incubation (extracellular) concentration ([2]; 200 μM, 24 hours): 8 fold
- Cu ([2]; 200 μM, 48 hours): 2400 µM
- enhancement of cellular uptake compared with incubation concentration ([2]; 200 μM, 48 hours): 12 fold
- enhancement of cellular uptake compared with incubation concentration ([2]; 500 μM, 24 hours): ~4.5 fold
- intracellular concentration ([2]; incubation medium 25 μM, 24 hours): 28 µM

SMILES: O=C(O)CCC(=O)OCCNC(=O)[C@@H](Cc1ccccc1)NC(=O)[C@@H](Cc1ccccc1)NC(=O)CCNc1ccc([N+](=O)[O-])c2nonc12 [compound 1]
- solubility [27]: less soluble than 1-t
- uptake concentration (Cu) / intracellular concentration [2, 28]: hardly detected
